The source of these data is patent publication US8268854B2, “Aza-beta-carbolines and methods of using same” (The UWM Research Foundation, Inc., priority 2008, dated 2012).

The target in this test is T1, Dopamine receptor D4 (Homo sapiens, UniProt P21917).
T1 construct: expressed in transfected cells
T1 sequence (P21917 1-419): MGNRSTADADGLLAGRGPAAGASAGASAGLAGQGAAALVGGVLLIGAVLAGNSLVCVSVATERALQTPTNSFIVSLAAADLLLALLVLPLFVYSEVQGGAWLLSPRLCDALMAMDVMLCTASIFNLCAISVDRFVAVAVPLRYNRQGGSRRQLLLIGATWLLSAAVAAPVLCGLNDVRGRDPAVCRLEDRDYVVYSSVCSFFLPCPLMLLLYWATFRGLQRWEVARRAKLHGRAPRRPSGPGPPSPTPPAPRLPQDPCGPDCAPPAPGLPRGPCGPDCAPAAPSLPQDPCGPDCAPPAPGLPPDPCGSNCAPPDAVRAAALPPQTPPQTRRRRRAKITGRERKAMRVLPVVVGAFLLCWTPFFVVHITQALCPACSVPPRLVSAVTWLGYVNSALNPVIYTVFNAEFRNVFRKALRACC
The test is described as follows: PDSP secondary radioligand binding assay. Here is the method:
Primary and secondary radioligand binding assays are performed. In general, the primary assay is run at very high ligand (compound) concentration as a broad screen to determine whether a compound binds to a particular receptor. If greater than 50% inhibition at 10 μM (high concentration of compound) at a particular receptor is determined, a secondary assay is performed on that receptor. Data from the secondary assay is the binding affinity (Ki value).
This assay is used to test binding to receptors such as the serotonin receptors: 5-HT1A, 5-HT1B, 5-HT1D, 5-HT1E, 5-HT2A, 5-HT2B, 5-HT2C, 5-HT3, 5-HT5A, 5-HT6 and 5-HT7. The protocol is adapted from Roth et al. J. Pharmacol. Exp. Ther. 1986, 238, 480-485 and Roth et al. J. Pharmacol. Exp. Ther. 1994, 268, 1403-1410. The assay buffer is Standard Binding Buffer (50 mM Tris-HCl, 10 mM MgCl2, 0.1 mM EDTA, pH 7.4). The membrane fraction source is transiently or stably transfected cell lines (e.g., HEK293, COS, CHO, NIH3T3).
A solution of the compound to be tested is prepared as a 1 mg/mL stock in Standard Binding Buffer or DMSO according to its solubility. A similar stock of a reference compound (positive control) is also prepared.
Radioligand (see Table 41) is diluted to five times the assay concentration (see Table 21) in Standard Binding Buffer. […]
The 250 μL reactions are incubated at room temperature and shielded from light (to prevent photolysis of light-sensitive ligands) for 1.5 hours, then harvested by rapid filtration onto Whatman GF/B glass fiber filters pre-soaked with 0.3% polyethyleneimine using a 96-well Brandel harvester. […] The tubes are capped, labeled, and counted by liquid scintillation counting. For higher throughput assays, bound radioactivity is harvested onto 0.3% polyethyleneimine-treated, 96-well filter mats using a 96-well Filtermate harvester. The filter mats are dried, then scintillant is melted onto the filters, and the radioactivity retained on the filters is counted in a Microbeta scintillation counter. […]

Counter-ions that a name gives are not always drawn.

For the molecule `CCCOc1cc2c(cn1)[nH]c1ccncc12` [Compound 2, 8-Propoxypyridino[4′,3′-5,4]pyrrolo[3,2-c]pyridine hydrochloride], the Ki is 7.5 µM.
